Assay results as given in patent US8586551B2, “18-membered macrocycles and analogs thereof” (Optimer Pharmaceuticals, Inc., priority 2005, dated 2013).
In brackets after ≈: the same amount, converted by molar mass.

Legend:
Assay type in all cases: cell-based
Veillonella spp. = test: MIC against intestinal bacteria: Veillonella; details: Veillonella spp. (10)
Procedure: (§1) The in vitro activity of OPT-80 against intestinal bacteria was evaluated. The experimental procedure for which is outlined in Antimicrobial Agents and Chemotherapy, 2004, 48: 4898-4902, which is hereby incorporated by reference in its entirety.
(§2) Antimicrobial concentration ranges were selected to encompass or surpass the levels that would be achieved in the gut (to the extent that this information is available), subject to the limitations of solubility of the drugs in the testing medium. The range of concentration of OPT-80 used during testing was 0.03 μg/ml to 1024 μg/ml.
(§3) For analysis, the bacteria tested were generally placed into genus, species, or other groups with at least 10 isolates. The ranges and the MICs at which 50 and 90% of isolates were inhibited were determined except for organisms with fewer than 10 strains tested, for which only the ranges are reported (Table 8).

[1] = tested on: Non-fragilis B. fragilis group species; test: MIC against anaerobes: non-fragilis B. fragilis group; details: Bacteroides fragilis; Non-fragilis B. fragilis group species (38)
Procedure: (§4) The in vitro activity of OPT-80 was determined against 350 anaerobes. The experimental procedure for which is outlined in Antimicrobial Agents and Chemotherapy, 2004, 48: 4430-4434, which is hereby incorporated by reference in its entirety.
(§5) All organisms, including the 21 C. difficile strains, were separate isolates and not clonally related. All quality-control gram-negative and -positive strains recommended by NCCLS were included with each run: in every case, results (where available) were in range.

[2] = tested on: Anaerobic non-spore-forming gram-positive rods; test: MIC against intestinal bacteria: anaerobic non-spore-forming gram-positive rods
[3] = tested on: All anaerobic gram-positive species; test: MIC against intestinal bacteria: all anaerobic gram-positive species
Clostridium tertium = test: MIC against anaerobes: Clostridium tertium; details: Clostridium tertium (10)
Eggerthella lenta = test: MIC against anaerobes: Eggerthella lenta; details: Eggerthella lenta (10)
Clostridium glycolicum = test: MIC against intestinal bacteria: Clostridium glycolicum; details: Clostridium glycolicum (9)
Fusobacterium nucleatum = test: MIC against anaerobes: Fusobacterium nucleatum; details: Fusobacterium nucleatum (14)
Procedure: as §4, §5

Clostridium species = test: MIC against anaerobes: Clostridium species; details: Clostridium species (19)
Procedure: as §4, §5

[4] = tested on: Peptostreptococcus prevotii; test: MIC against anaerobes: Peptostreptococcus prevotii; details: Peptostreptococcus prevotii (3)
Clostridium sordellii = test: MIC against intestinal bacteria: Clostridium sordellii; details: Clostridium sordellii (5)
Procedure: as §1, §2, §3

[5] = tested on: Staphylococcus aureus and Staphylococcus epidermidis; test: MIC against intestinal bacteria: Staphylococcus aureus and Staphylococcus epidermidis; details: Staphylococcus aureus and Staphylococcus epidermidis (19)
[6] = tested on: Fusobacterium species, miscellaneous; test: MIC against anaerobes: Fusobacterium species, miscellaneous; details: miscellaneous (14)
Procedure: as §4, §5

All Clostridium species = test: MIC against intestinal bacteria: all Clostridium species; details: All Clostridium species (107)
Clostridium difficile = test: MIC against anaerobes: Clostridium difficile; details: Clostridium difficile (21)
Procedure: as §4, §5

[7] = tested on: Peptostreptococcus anaerobius; test: MIC against anaerobes: Peptostreptococcus anaerobius; details: Peptostreptococcus anaerobius (15)
Clostridium ramosum = test: MIC against intestinal bacteria: Clostridium ramosum

`CCc1c(Cl)c(O)c(Cl)c(O)c1C(=O)O[C@H]1[C@H](O)[C@H](OC)[C@H](OCC2=CC=CC[C@H](O)C(C)=C[C@H](CC)[C@@H](O[C@@H]3OC(C)(C)[C@@H](OC(=O)C(C)C)[C@H](O)[C@@H]3O)C(C)=CC(C)=CC[C@@H]([C@@H](C)O)OC2=O)O[C@@H]1C` [R-Tiacumicin B, 3-[[[6-Deoxy-4-O-(3,5-dichloro-2-ethyl-4,6-dihydroxybenzoyl)-2-O-methyl-β-D-mannopyranosyl]oxy]-methyl]-12(R)-[[6-deoxy-5-C-methyl-4-O-(2-methyl-1-oxopropyl)-β-D-lyxo-hexopyranosyl]oxy]-11(S)-ethyl-8(S)-hydroxy-18(S)-(1(R)-hydroxyethyl)-9,13,15-trimethyloxacyclooctadeca-3,5,9,13,15-pentaene-2-one] gave an MIC50 (Veillonella spp.) of 32 µg/mL (≈ 30.2 µM), an MIC90 (Veillonella spp.) of 128 µg/mL (≈ 121 µM) and an MIC range (Veillonella spp.) of 16 to 128 µg/mL. It also gave an MIC50 [1] greater than 128 µg/mL, an MIC90 [1] greater than 128 µg/mL and an MIC90 [2] of 32 µg/mL (≈ 30.2 µM). It also gave an MIC50 ([2]; Anaerobic non-spore-forming gram-positive rods (63)) of 1 µg/mL (≈ 0.945 µM), an MIC50 [3] of 0.12 µg/mL (≈ 0.113 µM) and an MIC90 ([3]; All anaerobic gram-positive species (219)) of 64 µg/mL (≈ 60.5 µM). The MIC50 (Clostridium tertium) was less than 0.016 µg/mL, the MIC90 (Clostridium tertium) was 0.03 µg/mL (≈ 0.0284 µM) and the MIC range (Clostridium tertium) was less than 0.016 to 0.06 µg/mL. For the same compound, the MIC50 (Eggerthella lenta) was less than 0.016 µg/mL, the MIC90 (Eggerthella lenta) was less than 0.03 µg/mL and the MIC range (Eggerthella lenta) was less than 0.016 to 0.06 µg/mL. The MIC range (Clostridium glycolicum) was 0.06 to 1 µg/mL, the MIC50 (Fusobacterium nucleatum) was greater than 128 µg/mL and the MIC90 (Fusobacterium nucleatum) was greater than 128 µg/mL. The MIC50 (Clostridium species) was less than 0.016 µg/mL, the MIC90 (Clostridium species) was 0.03 µg/mL (≈ 0.0284 µM) and the MIC range [4] was 0.25 to 1.0 µg/mL. For the same compound, the MIC range (Clostridium sordellii) was 0.06 µg/mL (≈ 0.0567 µM), the MIC50 [5] was 0.5 µg/mL (≈ 0.473 µM) and the MIC90 [5] was 2 µg/mL (≈ 1.89 µM). For the same compound, the MIC range [5] was 0.25 to 2 µg/mL, the MIC50 [6] was greater than 128 µg/mL and the MIC90 [6] was greater than 128 µg/mL. For the same compound, the MIC50 (All Clostridium species) was 0.062 µg/mL (≈ 0.0586 µM), the MIC90 (All Clostridium species) was 128 µg/mL (≈ 121 µM) and the MIC50 (Clostridium difficile; Clostridioides difficile) was less than 0.016 µg/mL. For the same compound, the MIC90 (Clostridium difficile; Clostridioides difficile) was 0.125 µg/mL (≈ 0.118 µM), the MIC range (Clostridium difficile) was less than 0.016 to 0.25 µg/mL and the MIC50 [7] was less than 0.016 µg/mL. The MIC90 [7] was less than 0.016 µg/mL, the MIC range [7] was less than 0.016 to 0.03 µg/mL and the MIC range (Clostridium ramosum; Clostridium ramosum (10)) was 256 to 512 µg/mL. It also gave an MIC50 (Clostridium ramosum; Thomasclavelia ramosa) of 512 µg/mL (≈ 484 µM) and an MIC90 (Clostridium ramosum; Thomasclavelia ramosa, Clostridium ramosum (10)) of 512 µg/mL (≈ 484 µM).
